Test results as given in patent publication US20250299796A1, “COMPOSITIONS AND METHODS FOR TREATING AND/OR CHARACTERIZING HEMATOLOGICAL MALIGNANCIES AND PRECURSOR CONDITIONS” (Dana-Farber Cancer Institute, Inc., priority 2021, published 2025).

Legend:
[1] = test system: patients with high-risk smoldering multiple myeloma (SMM); assay: Phase II trial (E-PRISM): safety and tolerability, adverse events graded by CTCAE v4.0; details: in vivo
Method: In the treatment schema a cycle is defined as 28 consecutive days. In cycles 1 and 2, 10 mg/kg of intravenous push Elotuzumab were administered on days 1, 8, 15, and 22. In cycles 3-4, it was administered on days 1 and 15. A 25 mg dose of oral Lenalidomide was administered on days 1-21 of each cycle. In Arm A, 40 mg of oral Dexamethasone were administered on days 1, 8, 15, and 22 in cycles 1 and 2 and on days 1, 8, and 15 in cycles 3-8. Patients on maintenance treatment (cycles 9-24) were administered 20 mg/kg of intravenous push Elotuzumab on day 1 and 15 mg oral Lenalidomide on days 1-21. All patients received thromboprophylaxis.
Toxicities were monitored throughout the study and for up to 30 days after the last dose of the study drug. Adverse events (AEs) were graded according to the National Cancer Institute Common Terminology Criteria for Adverse Events (CTCAE; version 4.0; Bethesda, MD). In addition, neuropathy symptoms were assessed using the FACT/GOG-Neuropathy questionnaire (Version 4.0). Efficacy was measured using the IWMG criteria for response^31.
Forty-nine patients experienced at least one toxicity while on study with worst grades of 1-mild (n=0), 2-moderate (n=11/51, 22%), and 3-severe (n=29/51, 57%), 4-life threatening (n=7/51, 14%), and 5-fatal (n=2/51, 4%). […]

[2] = test system: immune system in patients with SMM; details: trial of Lenalidomide and Dexamethasone; cited from earlier work

## C[C@@H]1C[C@H]2[C@@H]3CCC4=CC(=O)C=C[C@]4(C)[C@@]3(F)[C@@H](O)C[C@]2(C)[C@@]1(O)C(=O)CO [Dexamethasone]
[1]
  Effect of Dexamethasone dose on type or frequency of treatment-related toxicities: no effect
[2]
  Effect of once weekly high-dose Dexamethasone on the immune system: does not have a detrimental effect
